The values below come from US20140377340A1, “HLA-DR BINDING PEPTIDES AND THEIR USES” (priority 2007, published 2014).

Molecules are shown by their SMILES.

One experiment concerns the target T1, purified HLA DRB1*0701 (Homo sapiens, UniProt P01903+P01911, A100R/A102G/A103Q/D57E/D86V/E43K/F76Y/K127E/L162R/M171V/P40G/Q125H/Q99D/R33Q/R42Y/R54Q/S133A/S66F/T210M/V115G/Y107V/Y59L/Y89S).
T1 construct: purified from EBV transformed homozygous cell lines or single MHC allele transfected 721.221, C1R, or fibroblast lines; made in house
The experiment in a line: HLA-DR radioligand binding inhibition assay, DRB1*0701. The following applies: IC50 nM purified HLA DRB1 *0701, purified HLA DRB1*0701. In short, it runs like this:
(§1)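 The probe, 1-10 nM radiolabeled peptide, was incubated with 1 μM to 1 nM HLA-DR for 2 days in the presence of protease inhibitors.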

The target of the next experiment is T2, purified HLA DRB1*0802 (Homo sapiens, UniProt P01903+P01911, A100R/A103L/A169T/F76Y/H45Y/I96F/K41T/L162R/M171V/P40S/Q125H/Q178H/Q39Y/Q99D/R218S/R42G/S66Y/V115G/W38E).
T2 construct: purified from EBV transformed homozygous cell lines or single MHC allele transfected 721.221, C1R, or fibroblast lines; made in house
The experiment in a line: HLA-DR radioligand binding inhibition assay, DRB1*0802. The following applies: IC50 nM purified HLA DRB1 *0802, purified HLA DRB1*0802. The protocol:
(§2) Instead, wells of an opaque white 96-well Optiplate (Packard) are coated with 3 μg (100 μl@ 30 μg/ml) of HLA-specific antibody (Ab) that “capture” complexes of radiolabeled MHC and unlabeled peptide transferred from the molecular binding assay plate in 100 μl of 0.05% NP40/PBS. After a 3-hour incubation period, the supernatant is decanted and scintillation fluid (Microscint 20) added. Captured complexes are then measured on a microplate scintillation and luminescence counter (TopCount NXTTM; Packard).
HLA-DR purification. Fifteen distinct HLA-DR molecules were used in quantitative assays to measure the binding of peptides to solubilized HLA-DR molecules. […] Briefly, columns of inactivated Sepharose CL4B and Protein A Sepharose were used as pre-columns. HLA-DR molecules were captured by passage of lysates over LB3.1 monoclonal antibody (anti-HLA-DRA) columns. Antibody columns were washed with 10 mM Tris-HCL, pH8.0 with 1% (v/v) NP-40, followed by PBS containing 0.4% (w/v) n-octylglucoside. […] The pH was reduced to 8.0 and the eluates were concentrated by centrifugation in Centriprep 30 concentrators at 2000 rpm (Amicon, Beverly, Mass.).
Briefly, 1-10 nM of radiolabeled peptide was co-incubated for 2 days at either room temperature or 37° C. with 1 μM to 1 nM purified HLA-DR molecules in the presence of a cocktail of protease inhibitors. Assays were performed at various pH conditions, ranging from pH 4 to pH 7. […] After incubation, the percentage of HLA-DR-bound radioactivity is determined by capturing HLA-DR/peptide complexes on Optiplates (Packard Instruments, Meriden, Conn.) coated with the LB3.1 antibody and determining bound counts per minute using the TopCount microscintillation counter (Packard Instruments). […] Competitor peptides are tested in 2-4 complete, independent experiments, at concentrations ranging from […].

In the next experiment the target is T3, purified HLA DRB1*0901 (Homo sapiens, UniProt P01903+P01911, A100R/A103E/D57H/D86V/F55Y/F60I/F76Y/I96F/K127E/L162R/M171V/P40D/Q125H/Q99R/R33Q/R42F/S133A/S66N/T210M/V115G/W38K/Y107V/Y59G/Y89S).
T3 construct: purified from EBV transformed homozygous cell lines or single MHC allele transfected 721.221, C1R, or fibroblast lines; made in house
The experiment in a line: HLA-DR radioligand binding inhibition assay, DRB1*0901. The following applies: IC50 nM purified HLA DRB1 *0901, purified HLA DRB1*0901. The protocol:
as §2
HLA-DR purification. Fifteen distinct HLA-DR molecules were used in quantitative assays to measure the binding of peptides to solubilized HLA-DR molecules. […] Briefly, columns of inactivated Sepharose CL4B and Protein A Sepharose were used as pre-columns. HLA-DR molecules were captured by passage of lysates over LB3.1 monoclonal antibody (anti-HLA-DRA) columns. Antibody columns were washed with 10 mM Tris-HCL, pH8.0 with 1% (v/v) NP-40, followed by PBS containing 0.4% (w/v) n-octylglucoside.
Briefly, 1-10 nM of radiolabeled peptide was co-incubated for 2 days at either room temperature or 37° C. with 1 μM to 1 nM purified HLA-DR molecules in the presence of a cocktail of protease inhibitors. Assays were performed at various pH conditions, ranging from pH 4 to pH 7. […] After incubation, the percentage of HLA-DR-bound radioactivity is determined by capturing HLA-DR/peptide complexes on Optiplates (Packard Instruments, Meriden, Conn.) coated with the LB3.1 antibody and determining bound counts per minute using the TopCount microscintillation counter (Packard Instruments).

For the next experiment, the target named is T4, purified HLA DRB4*0101 (Homo sapiens, UniProt P01903+P13762, G164S).
T4 construct: purified from EBV transformed homozygous cell lines or single MHC allele transfected 721.221, C1R, or fibroblast lines; made in house
The experiment in a line: HLA-DR radioligand binding inhibition assay, DRB4*0101. The following applies: IC50 nM purified HLA DRB4 *0101, purified HLA DRB4*0101. In short, it runs like this: as §1

For another experiment, the target named is T5, purified HLA DRB1*0404 (Homo sapiens, UniProt P01903+P01911, A100R/A169T/F76Y/I96L/K127E/L162R/M171V/N62H/P40V/Q125Y/R42H/S133A/S149N/S66Y/V209L/W38E).
T5 construct: purified from EBV transformed homozygous cell lines or single MHC allele transfected 721.221, C1R, or fibroblast lines; made in house
The experiment in a line: HLA-DR radioligand binding inhibition assay, DRB1*0404. The conditions noted are these: IC50 nM purified HLA DRB1 *0404, purified HLA DRB1*0404. In short, it runs like this: as §1

A further experiment addresses T6, purified HLA DRB1*1501 (Homo sapiens, UniProt P01903+P01911).
T6 construct: purified from EBV transformed homozygous cell lines or single MHC allele transfected 721.221, C1R, or fibroblast lines; made in house
The experiment in a line: HLA-DR radioligand binding inhibition assay, DRB1*1501. In short, it runs like this:
as §1

For a further experiment, the target named is T7, purified HLA DRB3*0101 (Homo sapiens, UniProt P01903+P79483).
T7 construct: purified from EBV transformed homozygous cell lines or single MHC allele transfected 721.221, C1R, or fibroblast lines; made in house
The experiment in a line: HLA-DR radioligand binding inhibition assay, DRB3*0101. The following applies: IC50 nM purified HLA DRB3 *0101, purified HLA DRB3*0101. In a few lines: (§3)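 HLA-DR-bound radioactivity was read by scintillation counting after LB3.1 antibody capture of HLA-DR/peptide complexes. Beforehand, 1-10 nM labeled peptide was incubated 2 days with 1 μM to 1 nM purified HLA-DR (room temperature or 37° C, pH 4-7, protease inhibitor cocktail) and competitor peptides at […], in 2-4 independent runs.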

Another experiment concerns the target T8, purified HLA DRB1*1201 (Homo sapiens, UniProt P01903+P01911, A100R/A169T/D57E/D86V/F55L/H45Y/K41T/L162R/M171V/P40S/Q125H/Q178H/Q39Y/Q99D/R42G/S66L/T262R/V114A/V67L/W38E/Y59H/Y61H/Y89S).
T8 construct: purified from EBV transformed homozygous cell lines or single MHC allele transfected 721.221, C1R, or fibroblast lines; made in house
The experiment in a line: HLA-DR radioligand binding inhibition assay, DRB1*1201. In short, it runs like this: as §3

The target in another experiment is T9, purified HLA DRB1*0405 (Homo sapiens, UniProt P01903+P01911, A100R/A169T/D86S/F76Y/I96L/K127E/L162R/M171V/N62H/P40V/Q125Y/R42H/S133A/S149N/S66Y/V115G/V209L/W38E).
T9 construct: purified from EBV transformed homozygous cell lines or single MHC allele transfected 721.221, C1R, or fibroblast lines; made in house
The experiment in a line: HLA-DR radioligand binding inhibition assay, DRB1*0405. The conditions noted are these: IC50 nM purified HLA DRB1 *0405, purified HLA DRB1*0405. In a few lines:
as §1

A further experiment deals with T10, purified HLA DRB1*1101 (Homo sapiens, UniProt P01903+P01911, A100R/A169T/A87E/I96F/K41T/L162R/M171V/P40S/Q125H/Q178H/Q39Y/Q99D/R42S/S66Y/T262R/V115G/W38E).
T10 construct: purified from EBV transformed homozygous cell lines or single MHC allele transfected 721.221, C1R, or fibroblast lines; made in house
The experiment in a line: HLA-DR radioligand binding inhibition assay, DRB1*1101. The following applies: IC50 nM purified HLA DRB1 *1101, purified HLA DRB1*1101. In short, it runs like this:
as §1

Another experiment deals with T11, purified HLA DRB1*1302 (Homo sapiens, UniProt P01903+P01911, A100E/A169T/K41T/L162R/M171V/P40S/Q125H/Q178H/Q39Y/Q99D/R42S/S66N/T262R/V115G/W38E/Y61H).
T11 construct: purified from EBV transformed homozygous cell lines or single MHC allele transfected 721.221, C1R, or fibroblast lines; made in house
The experiment in a line: HLA-DR radioligand binding inhibition assay, DRB1*1302. In a few lines: as §1

By IC50 is commonly meant the concentration needed to halve the response being measured. High values mean weaker potency, low ones greater potency.

T10 sequence (P01903 26-254, other chains not shown): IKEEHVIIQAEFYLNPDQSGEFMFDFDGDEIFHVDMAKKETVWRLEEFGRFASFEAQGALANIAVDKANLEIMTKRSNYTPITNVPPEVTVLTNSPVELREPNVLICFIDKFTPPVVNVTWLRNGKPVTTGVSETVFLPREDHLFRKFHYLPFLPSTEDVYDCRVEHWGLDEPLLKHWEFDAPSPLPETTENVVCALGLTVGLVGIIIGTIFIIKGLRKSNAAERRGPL

In the case of `CSCC[C@H](NC(=O)CNC(=O)[C@H](CC(C)C)NC(=O)CNC(=O)[C@H](Cc1ccc(O)cc1)NC(=O)[C@@H](N)CS)C(=O)N[C@@H](CCC(=O)O)C(=O)N[C@@H](Cc1c[nH]cn1)C(=O)N[C@@H](CC(C)C)C(=O)N[C@@H](CCCNC(=N)N)C(=O)N[C@@H](CCC(=O)O)C(=O)N[C@H](C(=O)N[C@@H](CCCNC(=N)N)C(=O)N[C@@H](C)C(=O)N[C@H](C(=O)O)C(C)C)C(C)C` [Peptide 9019.0044], the IC50 on purified HLA DRB1*0701 is 271 nM; at purified HLA DRB1*0802, more than 20000 nM; at purified HLA DRB1*0901, more than 20000 nM; on purified HLA DRB4*0101 it was 444 nM; on purified HLA DRB1*0404, 493 nM; at purified HLA DRB1*1501, 690 nM. In addition, the IC50 on purified HLA DRB3*0101 is more than 20000 nM; on purified HLA DRB1*1201 it was 19000 nM; at purified HLA DRB1*0405 it was 5120 nM.
For the compound `CC[C@H](C)[C@H](NC(=O)[C@H](CS)NC(=O)[C@H](CC(C)C)NC(=O)[C@H](CCCCN)NC(=O)[C@H](CCC(=O)O)NC(=O)[C@H](C)NC(=O)[C@@H](NC(=O)[C@H](CC(C)C)NC(=O)[C@@H]1CCCN1C(=O)[C@@H](NC(=O)[C@@H](N)[C@@H](C)O)[C@@H](C)CC)[C@@H](C)O)C(=O)N[C@@H](Cc1ccc(O)cc1)C(=O)N[C@H](C(=O)N[C@@H](CC(=O)O)C(=O)N[C@@H](CC(N)=O)C(=O)O)[C@@H](C)O` [Peptide 1622.01], the IC50 on purified HLA DRB1*0701, at purified HLA DRB1*0802, at purified HLA DRB1*1101, on purified HLA DRB1*1302, at purified HLA DRB1*0901 and on purified HLA DRB1*0404 was more than 20000 nM each time. Besides, the IC50 on purified HLA DRB3*0101, at purified HLA DRB1*1201 and on purified HLA DRB1*0405 was more than 20000 nM in each case.
